In patent publication US6610725B1, “Fluorinated imidazoline benzodioxane, preparation and therapeutic uses thereof” (Pierre Fabre Medicament, priority 1999, dated 2003):
“Also recorded” adds a separate entry of the source. Structures can show the parent of a compound that is named as a salt.

Columns and labels:
α2-adrenergic receptors = experiment: Inhibition of the hypothermia induced with guanabenz; format: in vivo; settings: for Number of doses inducing the inhibition of hypothermia in 100% of the animals: each dose separated by a factor of 4; for ED50 inhibition of hypothermia / Range of active doses, inhibition of hypothermia / ED50 normalization of hypothermia / Range of active doses, normalization of hypothermia: i.p.; for Range of active doses, normalization of hypothermia: normalization (return to normal temperature)
Procedure: The assessment of the biological activity of the compounds of the invention is also carried out in vivo by studying the inhibition of the hypothermia induced with a central α2-agonist such as guanabenz according to the protocol of S. C. Dilsaver, Pharmacol. Biochem. Behav., 45, 247, 1993.
The inhibitory capacities are expressed as the ED50 which represent the doses producing a significant inhibition of the hypothermia induced with guanabenz on the one hand, and a normalization, that is to say a return to the normal temperature for the animal, before injection of guanabenz on the other hand. These values are obtained using the method of J. T. Litchfield and F. Wilcoxon (J. Pharmacol. Exp. Ther., 96, 99, 1949). The comparison is made between the 2-methoxy compounds, fluorinated in position 5 (dextrorotatory compound of Example 1) and nonfluorinated: (+) RX 821002, and between the 2-ethoxy, fluorinated in position 5 (dextrorotatory compound of Example 2) and nonfluorinated: (+) RX 811059.

[1] = tested on: memory deficit induced with scopolamine; experiment: Memory deficit induced with scopolamine (passive avoidance test); format: in vivo; settings: rats; active doses over the range from 0.04 to 2.5 mg/kg
Excerpt: In accordance with the cholinergic hypothesis of the phenomena of learning and memory, scopolamine has […] properties in animals and man. Its administration to a healthy person induces certain amnesia symptoms similar to those observed in Alzheimer's disease. It has been proposed that the scopolamine be used as an experimental pharmacological model of this pathology. The similarities between the memory deficits of Alzheimer's disease and those induced with scopolamine in rats have been published (P. Chopin et M. Briley, The effects of raubasine and dihydroergocristine on an […] deficit in passive avoidance learning in rats, J.Pharm.Pharmacol. 42, 375-376, 1990). Scopolamine reduces the capacity for acquisition, memorization and recall in a test of passive avoidance in rats. This involves measuring the reticence, after learning, that the animal has in entering a dark compartment, where it receives a mild electric shock. The administration of scopolamine suppresses this reticence, and the test compounds oppose the effect of scopolamine. The comparison of the products of the present invention is made with the known compound RX 821002, dextrorotatory enantiomer. The experimental protocol is that published by P. Chopin and M. Briley (Effects of four non-cholinergic cognitive enhancers in comparison with tacrine and galanthamine on scopolamine-induced amnesia in rats: Psychopharmacology, 106, 26-30, 1992).

α1 or α2 receptors = settings: from J. Med. Chem. publications; cited from earlier work
release of noradrenalin = experiment: Release of noradrenalin: normetanephrine level in frontal cortex; format: in vivo; settings: mice, i.p., 0.01 to 2.5 mg/kg, 60 minutes, cortical tissue, HPLC
Procedure: The level of normetanephrine, a noradrenalin metabolite, in the cerebral tissues is used as a measurement of the release of noradrenalin. Wood, P. L. and coll. Pharmacological Rev. 40, 163-187, (1988), and J. Neurochem. 48, 574-579, (1987)). The formation of normetanephrine, by the action of catechol O-methyltransferase takes place on the outside of the noradrenergic neurones and its measurement takes account of variations in the release of noradrenalin. This measurement is performed in the frontal cortex, a region innervated mainly by the locus coeruleus.
The test compound is administered intraperitoneally to the mice, which are sacrificed after 60 minutes by irradiation with microwaves (to avoid any artefactual changes in the metabolite levels). After dissection, normetanephrine is assayed by HPLC on the cortical tissue extracts. At doses of 0.01 to 2.5 mg/kg, the assayed normetanephrine represents a level from 125 to 150% higher with the compound of Example 1, relative to (+) RX 821002, under the same conditions.

Compound	melting point [°C]	ED50 inhibition of hypothermia (α2-adrenergic receptors) [mg/kg]	Range of active doses, inhibition of hypothermia (α2-adrenergic receptors) [mg/kg]	ED50 normalization of hypothermia (α2-adrenergic receptors) [mg/kg]	Range of active doses, normalization of hypothermia (α2-adrenergic receptors) [mg/kg]	Increase in the time taken to enter the dark compartment by the treated animals, relative to those receiving scopolamine alone (% amplitude of the effect) [1]	other results
CCCOC1(C2=NCCN2)COc2c(F)cccc2O1 (stereo not shown) (as salt: hydrochloride) [Example 3, 2-(5-Fluoro-2-propoxy-1,4-benzodioxan-2-yl)-imidazoline Hydrochloride]	206	–	–	–	–	–	–
COC1(C2=NCCN2)COc2c(F)cccc2O1 (stereo not shown) [Dextrorotatory compound of Example 1, 2-(5-Fluoro-2-methoxy-1,4-benzodioxan-2-yl)-2-imidazoline]	–	0.003	0.0025 to 40	0.02	0.0025 to 10	201%	Number of doses inducing the inhibition of hypothermia in 100% of the animals (α2-adrenergic receptors): 6 doses; Number of doses normalizing the hypothermia in 100% of the animals (α2-adrenergic receptors; in vivo): 3 doses; ED50 normalization (per os) (α2-adrenergic receptors): 0.22 mg/kg; Range of active doses (per os) normalization (α2-adrenergic receptors): 0.04 to 40 mg/kg
CC(C)COC1(C2=NCCN2)COc2c(F)cccc2O1 (stereo not shown) (as salt: hydrochloride) [Example 5, 2-(5-Fluoro-2-isobutoxy-1,4-benzodioxan-2-yl)-imidazoline Hydrochloride]	206	–	–	–	–	–	–
COC1(C2=NCCN2)COc2ccccc2O1 (single isomer, unassigned; (+)) [(+) RX 821002, 2-methoxy idazoxan]	–	0.01	0.01 to 10	0.05	0.04 to 2.5	not significantly active; also recorded: non-significant	Number of doses inducing the inhibition of hypothermia in 100% of the animals (α2-adrenergic receptors): 2 doses; Doses normalizing the hypothermia in 100% of the animals (α2-adrenergic receptors; list of single doses): none; ED50 normalization (per os) (α2-adrenergic receptors): 0.56 mg/kg; Range of active doses (per os) normalization (α2-adrenergic receptors): 0.16 to 10 mg/kg; Proportion of the animals in which hypothermia is normalized (maximum reached) (α2-adrenergic receptors; reached at only 2 doses): 80%
CCOC1(C2=NCCN2)COc2c(F)cccc2O1 (stereo not shown) (as salt: salt) [Example 2, 2-(5-Fluoro-2-ethoxy-1,4-benzodioxan-2-yl)-2-imidazoline]	> 260	–	–	–	–	–	–
Fc1cccc2c1OCC(OCc1ccccc1)(C1=NCCN1)O2 (stereo not shown) (as salt: hydrochloride) (hydrate or solvate) [Example 8, 2-(5-Fluoro-2-benzyloxy-1,4-benzodioxan-2-yl)-imidazoline Hydrochloride]	218	–	–	–	–	–	–
Nc1c2c(nc3ccccc13)CCCC2 [Tacrine]	–	–	–	–	–	191%	–
CCOC1(C2=NCCN2)COc2c(F)cccc2O1 (stereo not shown) [Dextrorotatory compound of Example 2, 2-(5-Fluoro-2-ethoxy-1,4-benzodioxan-2-yl)-2-imidazoline]	–	0.02	0.0025 to 40	0.16	0.01 to 10	198%	–
COc1cc2c(cc1OC)OC(OC)(C1=NCCN1)CO2 (stereo not shown)	–	–	–	–	–	–	Activity relative to unsubstituted idazoxan analog / α2-presynaptic antagonist activity (α1 or α2 receptors): only extremely marginal activity
COc1cc2c(cc1OC)C(=O)C(CC1CCN(Cc3ccccc3)CC1)C2 (stereo not shown) [Donepezil]	–	–	–	–	–	67%	–
COC1(C2=NCCN2)COc2c(F)cccc2O1 (stereo not shown) [Example 1, 2-(5-Fluoro-2-methoxy-1,4-benzodioxan-2-yl)-2-imidazoline]	–	–	–	–	–	–	Assayed normetanephrine level relative to (+) RX 821002 (release of noradrenalin): 125 to 150 % higher
C=CCOC1(C2=NCCN2)COc2c(F)cccc2O1 (stereo not shown) (as salt: hydrochloride) [Example 7, 2-(5-Fluoro-2-allyloxy-1,4-benzodioxan-2-yl)-imidazoline Hydrochloride]	214	–	–	–	–	–	–
CCOC1(C2=NCCN2)COc2ccccc2O1 (single isomer, unassigned; (+)) [(+) RX 811059, 2-ethoxy idazoxan]	–	0.08	0.04 to 10	0.32	0.16 to 10	–	–
